A short description of series [1]: Solubility in water and sodium chloride solutions. The series is classed as physicochemical. From the text: However, the presence of sodium chloride requires the use of long lyophilisation cycles due to the low glass transition temperature observed.
Series [2] is described as follows: Stability in solution in common solvents for parenteral administration. Type of series: physicochemical. The following applies: injectable liquid compositions.
The next series relates to ascitic L1210 leukaemia. The following applies: wide range of doses; cited from earlier work.
The next series deals with YC-8 lymphoma. The following applies: wide range of doses; cited from earlier work.
For series [3] the following is noted: in vivo; cited from earlier work.

This is an account of results in patent US9211262B2, “Injectable pharmaceutical compositions of an anthracenedione derivative with anti-tumoral activity” (CTI BioPharma Corp., priority 2002, dated 2015).

SMILES strings stand for the structures.

For the compound `NCCNc1ccc(NCCN)c2c1C(=O)c1ccncc1C2=O.O=C(O)/C=C\C(=O)O.O=C(O)/C=C\C(=O)O` [BBR 2778, 6,9-bis[(2-aminoethyl)amino]benzo[g]isoquinoline-5,10-dione dimaleate], the “solubility in sodium chloride solutions” value in series [1] (sodium chloride solutions 0.9 to 4%) is given as “progressively more soluble”. The solubility in water entry in series [1] (water) is reported as “low solubility”. Also, the stability in solution result in series [2] was “problematic”. Further, the “activity compared with mitoxantrone” value in the series on ascitic L1210 leukaemia and with YC-8 lymphoma was “more active than mitoxantrone” throughout. The cardiotoxicity result in series [3] is given as “lower than that of other known drugs belonging to the same class”.
